Data: patent US20250129049A1, “1H-PYRAZOLE-3-AMINE DERIVATIVE HAVING BICYCLIC BACKBONE” (Sumitomo Pharma Co., Ltd., priority 2021, published 2025)

Key:
[1] = system: ES-2 cells; assay: Cell growth suppression experiment (ES-2); assay type: cell-based; settings: Homo sapiens, 48 h, cultured 2 days, CellTiter-Glo 3D
Procedure: ES-2 cells were obtained from the American Type Culture Collection (ATCC). These cells were cultured at 37° C. in the presence of 5% CO2 in a McCoy's 5a medium containing 10% fetal bovine serum and 1% penicillin/streptomycin.
500 cells were seeded for each well in a 384-well plate, and the evaluated compound was added to the final DMSO concentration of 0.1% to culture the cells for 2 days. After completion of the culture, the cell viability rate was calculated using CellTiter-Glo (registered trademark) 3D Reagent (Promega, G968B).

[2] = target: CHK1 kinase (Homo sapiens (Human), UniProt O14757)
Chain of CHK1 kinase (O14757 whole entry): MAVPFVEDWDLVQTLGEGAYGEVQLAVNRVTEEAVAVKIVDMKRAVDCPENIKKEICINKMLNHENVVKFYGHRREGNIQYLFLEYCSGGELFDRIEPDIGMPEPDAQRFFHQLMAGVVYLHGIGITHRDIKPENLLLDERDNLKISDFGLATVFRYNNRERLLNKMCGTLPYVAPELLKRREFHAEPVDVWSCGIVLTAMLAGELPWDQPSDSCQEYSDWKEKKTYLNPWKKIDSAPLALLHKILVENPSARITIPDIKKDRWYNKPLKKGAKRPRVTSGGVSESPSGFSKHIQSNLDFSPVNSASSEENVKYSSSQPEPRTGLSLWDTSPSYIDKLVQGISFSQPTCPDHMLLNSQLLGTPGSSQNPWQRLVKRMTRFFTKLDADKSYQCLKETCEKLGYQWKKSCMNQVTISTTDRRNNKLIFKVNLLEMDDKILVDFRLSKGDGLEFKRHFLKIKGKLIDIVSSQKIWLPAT

[3] = target: hERG current (Homo sapiens (Human), UniProt Q12809); assay: cell-based
Chain of hERG current (Q12809 whole entry): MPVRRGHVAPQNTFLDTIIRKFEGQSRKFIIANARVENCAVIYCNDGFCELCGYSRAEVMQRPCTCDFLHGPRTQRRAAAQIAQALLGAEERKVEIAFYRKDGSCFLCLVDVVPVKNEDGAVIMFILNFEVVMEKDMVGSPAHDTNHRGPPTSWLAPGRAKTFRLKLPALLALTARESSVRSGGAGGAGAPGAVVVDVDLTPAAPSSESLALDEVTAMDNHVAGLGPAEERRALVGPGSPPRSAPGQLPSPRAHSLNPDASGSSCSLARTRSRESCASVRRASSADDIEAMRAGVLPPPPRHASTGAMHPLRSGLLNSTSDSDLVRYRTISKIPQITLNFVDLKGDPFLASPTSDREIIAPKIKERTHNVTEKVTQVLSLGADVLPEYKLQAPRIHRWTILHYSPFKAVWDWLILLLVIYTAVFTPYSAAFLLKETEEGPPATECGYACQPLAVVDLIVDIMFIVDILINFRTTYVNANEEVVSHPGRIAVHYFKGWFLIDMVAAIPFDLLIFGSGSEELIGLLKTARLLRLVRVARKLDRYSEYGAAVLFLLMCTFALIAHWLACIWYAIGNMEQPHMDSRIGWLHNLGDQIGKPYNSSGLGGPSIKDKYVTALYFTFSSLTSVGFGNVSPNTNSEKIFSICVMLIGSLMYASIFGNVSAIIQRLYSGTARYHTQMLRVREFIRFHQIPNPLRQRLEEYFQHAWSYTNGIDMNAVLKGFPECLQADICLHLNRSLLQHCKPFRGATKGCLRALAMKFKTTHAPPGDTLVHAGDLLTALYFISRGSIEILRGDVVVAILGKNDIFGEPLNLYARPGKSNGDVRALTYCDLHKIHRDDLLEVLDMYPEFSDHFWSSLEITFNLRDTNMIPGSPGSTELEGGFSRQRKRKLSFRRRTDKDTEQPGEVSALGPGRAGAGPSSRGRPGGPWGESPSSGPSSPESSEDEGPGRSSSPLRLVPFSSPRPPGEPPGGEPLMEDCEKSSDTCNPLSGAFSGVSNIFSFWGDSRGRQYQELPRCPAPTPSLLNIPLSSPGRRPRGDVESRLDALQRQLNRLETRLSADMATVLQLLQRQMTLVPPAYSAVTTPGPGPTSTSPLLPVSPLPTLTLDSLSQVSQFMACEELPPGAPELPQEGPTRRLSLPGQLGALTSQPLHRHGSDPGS

| SMILES | IC50 [1] [nM] | IC50 [2] [nM] | IC50 [3] [nM] |
| --- | --- | --- | --- |
| N#Cc1cnc(Nc2cc(-c3c(OCCCN)ccc4cccnc34)[nH]n2)cn1 [Example 1, 5-({5-[7-(3-aminopropoxy)quinolin-8-yl]-1H-pyrazol-3-yl}amino)pyrazine-2-carbonitrile] | 4.9 | 0.37 | – |
| N#Cc1cnc(Nc2cc(-c3c(OCCCN)ccc4ccoc34)[nH]n2)cn1 [Example 2, 5-({5-[6-(3-aminopropoxy)-1-benzofuran-7-yl]-1H-pyrazol-3-yl}amino)pyrazine-2-carbonitrile] | 2.9 | 0.25 | – |
| N#Cc1cnc(Nc2cc(-c3c(OCCCN)ccc4c3OCC4)[nH]n2)cn1 [Example 3, 5-({5-[6-(3-aminopropoxy)-2,3-dihydro-1-benzofuran-7-yl]-1H-pyrazol-3-yl}amino)pyrazine-2-carbonitrile] | 4 | – | 530 |
| N#Cc1cnc(Nc2cc(-c3c(OCC4(CN)CC4)ccc4c3OCC4)[nH]n2)cn1 [Example 4, 5-{[5-(6-{[1-(aminomethyl)cyclopropyl]methoxy}-2,3-dihydro-1-benzofuran-7-yl)-1H-pyrazol-3-yl]amino}pyrazine-2-carbonitrile] | 9.1 | 0.27 | 300 |
| CC1(COc2ccc3c(c2-c2cc(Nc4cnc(C#N)cn4)n[nH]2)OCC3)CNC1 [Example 5, 5-[(5-{6-[(3-methylazetidin-3-yl)methoxy]-2,3-dihydro-1-benzofuran-7-yl}-1H-pyrazol-3-yl)amino]pyrazine-2-carbonitrile] | 6.7 | – | – |
| N#Cc1cnc(Nc2cc(-c3c(OCCCN)cnc4ccnn34)[nH]n2)cn1 [Example 7, 5-({5-[6-(3-aminopropoxy)pyrazolo[1,5-a]pyrimidin-7-yl]-1H-pyrazol-3-yl}amino)pyrazine-2-carbonitrile] | 469 | 1.71 | – |
| N#Cc1cnc(Nc2cc(-c3c(OCC(F)(F)CN)cnc4cccnc34)[nH]n2)cn1 [Example 9, 5-({5-[3-(3-amino-2,2-difluoropropoxy)-1,5-naphthyridin-4-yl]-1H-pyrazol-3-yl}amino)pyrazine-2-carbonitrile] | 4.7 | 0.64 | – |
| N#Cc1cnc(Nc2cc(-c3c(OCC4(CN)CC4)cnc4cccnc34)[nH]n2)cn1 [Example 10, 5-{[5-(3-{[1-(aminomethyl)cyclopropyl]methoxy}-1,5-naphthyridin-4-yl)-1H-pyrazol-3-yl]amino}pyrazine-2-carbonitrile] | 6.6 | 0.34 | – |
| CC1(COc2cnc3cccnc3c2-c2cc(Nc3cnc(C#N)cn3)n[nH]2)CNC1 [Example 11, 5-[(5-{3-[(3-methylazetidin-3-yl)methoxy]-1,5-naphthyridin-4-yl}-1H-pyrazol-3-yl)amino]pyrazine-2-carbonitrile] | 14.8 | 0.39 | – |
| N#Cc1cnc(Nc2cc(-c3c(OCCCN)cnc4c3OCC4)[nH]n2)cn1 [Example 13, 5-({5-[6-(3-aminopropoxy)-2,3-dihydrofuro[3,2-b]pyridin-7-yl]-1H-pyrazol-3-yl}amino)pyrazine-2-carbonitrile] | 20 | 0.42 | – |
| CC1(COc2cnc3c(c2-c2cc(Nc4cnc(C#N)cn4)n[nH]2)OCC3)CNC1 [Example 15, 5-[(5-{6-[(3-methylazetidin-3-yl)methoxy]-2,3-dihydrofuro[3,2-b]pyridin-7-yl}-1H-pyrazol-3-yl)amino]pyrazine-2-carbonitrile] | 7.2 | 0.23 | – |
| Cc1nc2ccc(OCCCN)c(-c3cc(Nc4cnc(C#N)cn4)n[nH]3)c2o1 [Example 16, 5-({5-[6-(3-aminopropoxy)-2-methyl-1,3-benzoxazol-7-yl]-1H-pyrazol-3-yl}amino)pyrazine-2-carbonitrile] | 489 | 0.45 | – |
| N#Cc1cnc(Nc2cc(-c3c(OCC4(CN)CC4)ccc4ccnn34)[nH]n2)cn1 [Example 17, 5-{[5-(6-{[1-(aminomethyl)cyclopropyl]methoxy)pyrazolo[1,5-a]pyridin-7-yl)-1H-pyrazol-3-yl]amino}pyrazine-2-carbonitrile] | 3.7 | 0.27 | – |
| CC1(COc2ccc3ccnn3c2-c2cc(Nc3cnc(C#N)cn3)n[nH]2)CNC1 [Example 18, 5-[(5-{6-[(3-methylazetidin-3-yl)methoxy]pyrazolo[1,5-a]pyridin-7-yl)-1H-pyrazol-3-yl)amino]pyrazine-2-carbonitrile] | 4.7 | 0.34 | – |
| N#Cc1cnc(Nc2cc(-c3c(OCC4(CN)CC4)ccc4ccoc34)[nH]n2)cn1 [Example 19, 5-{[5-(6-{[1-(aminomethyl)cyclopropyl]methoxy}-1-benzofuran-7-yl}-1H-pyrazol-3-yl]amino}pyrazine-2-carbonitrile] | 4.6 | 0.26 | – |
| N#Cc1cnc(Nc2cc(-c3c(OCC4(CN)CC4(F)F)ccc4ccoc34)[nH]n2)cn1 (stereo not shown) [Example 20, 5-{[5-(6-{[1-(aminomethyl)-2,2-difluorocyclopropyl]methoxy)-1-benzofuran-7-yl)-1H-pyrazol-3-yl]amino}pyrazine-2-carbonitrile] | 16.3 | – | – |
| N#Cc1cnc(Nc2cc(-c3c(O[C@@H]4CC[C@@H](N)C4)cnc4c3OCC4)[nH]n2)cn1 [Example 21, 5-{[5-(6-{[(1R,3R)-3-aminocyclopentyl]oxy)-2,3-dihydrofuro[3,2-b]pyridin-7-yl)-1H-pyrazol-3-yl]amino}pyrazine-2-carbonitrile] | 11.8 | – | – |
| N#Cc1cnc(Nc2cc(-c3c(OCC4(C(F)F)CNC4)cnc4c3OCC4)[nH]n2)cn1 [Example 22, 5-{[5-(6-{[3-(difluoromethyl)azetidin-3-yl]methoxy}-2,3-dihydrofuro[3,2-b]pyridin-7-yl)-1H-pyrazol-3-yl]amino}pyrazine-2-carbonitrile] | 13.7 | 0.39 | – |
| N#Cc1cnc(Nc2cc(-c3c(OCC4(F)CNC4)cnc4c3OCC4)[nH]n2)cn1 [Example 23, 5-[(5-{6-[(3-fluoroazetidin-3-yl)methoxy]-2,3-dihydrofuro[3,2-b]pyridin-7-yl}-1H-pyrazol-3-yl)amino]pyrazine-2-carbonitrile] | 6.8 | 0.3 | – |
| C[C@@H](Oc1cnc2c(c1-c1cc(Nc3cnc(C#N)cn3)n[nH]1)OCC2)C1CNC1 [Example 25, 5-[(5-{6-[(1R)-1-(azetidin-3-yl)ethoxy]-2,3-dihydrofuro[3,2-b]pyridin-7-yl}-1H-pyrazol-3-yl)amino]pyrazine-2-carbonitrile] | 6.4 | 0.43 | – |
| N#Cc1cnc(Nc2cc(-c3c(OC[C@H]4CCNC4)cnc4c3OCC4)[nH]n2)cn1 [Example 26, 5-{[5-(6-{[(3S)-pyrrolidin-3-yl]methoxy}-2,3-dihydrofuro[3,2-b]pyridin-7-yl)-1H-pyrazol-3-yl]amino}pyrazine-2-carbonitrile] | 9.4 | 0.34 | – |
| CNCCCOc1cnc2c(c1-c1cc(Nc3cnc(C#N)cn3)n[nH]1)OCC2 [Example 27, 5-[(5-{6-[3-(methylamino)propoxy]-2,3-dihydrofuro[3,2-b]pyridin-7-yl}-1H-pyrazol-3-yl)amino]pyrazine-2-carbonitrile] | 8.5 | 0.22 | – |
| C[C@@H](CN)COc1cnc2c(c1-c1cc(Nc3cnc(C#N)cn3)n[nH]1)OCC2 [Example 30, 5-[(5-{6-[(2S)-3-amino-2-methylpropoxy]-2,3-dihydrofuro[3,2-b]pyridin-7-yl}-1H-pyrazol-3-yl)amino]pyrazine-2-carbonitrile] | 14.8 | 0.43 | – |
| C=C(CN)COc1cnc2c(c1-c1cc(Nc3cnc(C#N)cn3)n[nH]1)OCC2 [Example 31, 5-{[5-(6-{[2-(aminomethyl)prop-2-en-1-yl]oxy)-2,3-dihydrofuro[3,2-b]pyridin-7-yl)-1H-pyrazol-3-yl]amino}pyrazine-2-carbonitrile] | 13.8 | 0.31 | – |
| NCCCOc1cnc2c(c1-c1cc(Nc3cnc(Cl)cn3)n[nH]1)OCC2 [Example 32, N-{5-[6-(3-aminopropoxy)-2,3-dihydrofuro[3,2-b]pyridin-7-yl]-1H-pyrazol-3-yl}-5-chloropyrazin-2-amine] | 21.5 | 0.33 | – |
| COC(=O)c1cnc(Nc2cc(-c3c(OCCCN)cnc4c3OCC4)[nH]n2)cn1 [Example 33, methyl 5-({5-[6-(3-aminopropoxy)-2,3-dihydrofuro[3,2-b]pyridin-7-yl]-1H-pyrazol-3-yl}amino)pyrazine-2-carboxylate] | > 1000 | 9.28 | – |
| N#Cc1cnc(Nc2cc(-c3c(O[C@@H]4CCC[C@H]4CN)cnc4cccnc34)[nH]n2)cn1 [Example 34, 5-{[5-(3-{[(1R,2S)-2-(aminomethyl)cyclopentyl]oxy}-1,5-naphthyridin-4-yl)-1H-pyrazol-3-yl]amino}pyrazine-2-carbonitrile] | 5.5 | 0.75 | – |
| N#Cc1cnc(Nc2cc(-c3c(O[C@@H]4CCC[C@H](N)C4)cnc4cccnc34)[nH]n2)cn1 [Example 36, 5-{[5-(3-{[(1R,3S)-3-aminocyclohexyl]oxy}-1,5-naphthyridin-4-yl)-1H-pyrazol-3-yl]amino}pyrazine-2-carbonitrile] | 6 | 0.46 | – |
| N#Cc1cnc(Nc2cc(-c3c(O[C@@H]4CC[C@@H](N)C4)cnc4cccnc34)[nH]n2)cn1 [Example 37, 5-{[5-(3-{[(1R,3R)-3-aminocyclopentyl]oxy}-1,5-naphthyridin-4-yl)-1H-pyrazol-3-yl]amino}pyrazine-2-carbonitrile] | 6.8 | 0.49 | – |
| N#Cc1cnc(Nc2cc(-c3c(OCC4(CN)CC(F)(F)C4)cnc4cccnc34)[nH]n2)cn1 [Example 38, 5-{[5-(3-{[1-(aminomethyl)-3,3-difluorocyclobutyl]methoxy)-1,5-naphthyridin-4-yl)-1H-pyrazol-3-yl]amino}pyrazine-2-carbonitrile] | 8.1 | 0.93 | – |
